Format in all cases: in vivo
For one experiment, the system named is Female CFLP mice. Nature of the experiment: Anti-hyperglycaemic activity (glucose tolerance after subcutaneous glucose load). To be noted: 24 h fasted mice, glucose 1 g/kg s.c. 30 min after dosing, 2 hour period, compared with water controls. On the procedure:
Female CFLP mice, weighing approximately 25 g, were fasted for 24 hours prior to the study. The compound under study was administered orally as an aqueous solution to each of 6 mice. 30 minutes later a blood sample (10 µl) was obtained from the tail for the analysis of blood glucose. Immediately after taking this blood sample, glucose (1 g/kg body weight) was administered subcutaneously to each mouse. 6 mice were given water as a control. Blood samples were then obtained from each mouse at 30 minute intervals for 120 minutes.
Compounds that produce a significant (P<0.05) reduction of blood glucose, compared with control mice given water, at any time interval, are considered active. The area under the blood glucose curve over the 2 hour period after the administration of the glucose was calculated for the compounds and compared with the value for control animals.

For another experiment, the system named is Male Sprague-Dawley rats. Nature of the experiment: Effect on energy expenditure of rats. To be noted: Rattus norvegicus, po; for response vs control in vivo at 0.57 mg/kg: dose 0.57 mg/kg p.o.; for response vs control in vivo at 0.57 mg/kg / response vs control in vivo at 4.73 mg/kg / response vs control in vivo at 5.8 mg/kg / response vs control in vivo at 10.4 mg/kg / response vs control in vivo at 9.4 mg/kg / response vs control in vivo at 26.4 mg/kg / response vs control in vivo at 10.3 mg/kg: percentage of the rate of energy expenditure of the rats dosed with water, fasted rats; for response vs control in vivo at 4.73 mg/kg: dose 4.73 mg/kg p.o.; for response vs control in vivo at 5.8 mg/kg: dose 5.8 mg/kg p.o.; for response vs control in vivo at 10.4 mg/kg: dose 10.4 mg/kg p.o.; for response vs control in vivo at 9.4 mg/kg: dose 9.4 mg/kg p.o.; for response vs control in vivo at 26.4 mg/kg: dose 26.4 mg/kg p.o.; for response vs control in vivo at 10.3 mg/kg: dose 10.3 mg/kg p.o. On the procedure:
Male Sprague-Dawley rats each weighing between 170-200 g were deprived of food for 16 hours before, and during the experiment. Water was provided ab lib at all times. The compounds were administered orally in water to 3 or 4 rats. A further 4 rats were dosed orally with water. The rats were placed in boxes through which air was drawn and the oxygen content of the air leaving the boxes was measured. The energy expenditure of the rats was calculated for 3 hours and for 21 hours after dosing from the volume of air leaving the boxes and its oxygen content, following the pinciples described by J. B. de V. Weir, J. Physiol. (London) 109, 1-9 (1949). The results are expressed as a percentage of the rate of energy expenditure of the rats dosed with water.

The next experiment deals with Female BALB/c mice. The experiment can be described thus: Anti-obesity activity (weight of parametrial fat pads). To be noted: 5.8 mg/kg of diet, added to the diet for 3 days, treated animals compared with controls, mean of 9 values. On the procedure: Female BALB/c mice were trained to feed on powdered oxoid for 1 week. They were then housed in threes and the compound under study was added to the diet for 3 days. Food was removed at 09.00h and the mice were killed at 11.00h. The parmetrial fat pads were weighed as pairs. The result is a mean of 9 values.
The compound of Example Number 3 gave a 38% reduction in weight of perigenital adipose tissue in. treated animals compared with controls when given at a dose of 5.8 mg/kg of diet.

[1] abbreviates: 3 h, read-out: Mean Energy Expenditure (0—3h).
[2] abbreviates: 21 h, read-out: Mean Energy Expenditure (9—21h).

Each structure is given as a SMILES string. Where a name gives a salt, the structure may show the parent alone. Read-outs that look alike come from different tables or passages of the source.

For `COC(=O)COc1ccc(CC(C)N(CC(O)c2cccc(Cl)c2)CC(O)c2cccc(Cl)c2)cc1.Cl.O` (stereo not drawn) [Example 1, Methyl 4-[2-[bis-[β-hydroxy-3-chlorophenethyl]amino]propyl]phenoxyacetate hydrochloride monohydrate], in the experiment with Female CFLP mice (dose 5 µmol/kg orally), the “% Reduction in area under Blood Glucose Curve” value (“% Reduction in area” below) is on record as 55%. In addition, the results for the response vs control in vivo at 0.57 mg/kg with Male Sprague-Dawley rats (setting [1]) and in the experiment with Male Sprague-Dawley rats (setting [2]) were 132% and 110%, respectively.
Regarding `C[C@H](COc1ccc(OCC(N)=O)cc1)N(C[C@H](O)c1ccccc1)C[C@H](O)c1ccccc1` [Example 8, 4-[(R)-2-[bis-[(R)-β-hydroxyphenethyl]amino]propoxy]phenoxyacetamide hydrochloride], the response vs control in vivo at 4.73 mg/kg in the experiment on Male Sprague-Dawley rats (setting [1]) was 113%; with Male Sprague-Dawley rats (setting [2]) it was 103%.
For the compound `CCOC(=O)COc1ccc(C[C@@H](C)N(C[C@H](O)c2cccc(Cl)c2)C[C@H](O)c2cccc(Cl)c2)cc1.Cl` [Example 3, Ethyl 4-[(R)-2-[bis-[(R)-β-hydroxy-3-chlorophenethyl]amino]propyl]phenoxyacetate hydrochloride], the “reduction in weight of perigenital adipose tissue” value in the experiment with Female BALB/c mice was determined as 38%. Moreover, the response vs control in vivo at 5.8 mg/kg in the experiment with Male Sprague-Dawley rats (setting [1]) came to 144%; in the experiment with Male Sprague-Dawley rats (setting [2]), 132%.
Consider `CNCCOc1ccc(C[C@@H](C)N(C[C@H](O)c2ccccc2)C[C@H](O)c2ccccc2)cc1` [Example 7, N-Methyl 4-[(R)-2-[bis-[(R)-β-hydroxyphenethyl]amino]propyl]phenoxy ethylamine dihydrochloride], for which the “% Reduction in area” value in the experiment on Female CFLP mice (dose 2.5 µmol/kg orally) worked out at 50%. Also, the response vs control in vivo at 10.4 mg/kg with Male Sprague-Dawley rats (setting [1]) worked out at 145%; in the experiment with Male Sprague-Dawley rats (setting [2]) it was 146%.
With `C[C@H](Cc1ccc(OCCO)cc1)N(C[C@H](O)c1ccccc1)C[C@H](O)c1ccccc1` [Example 5, 4-[(R)-2-[bis-[(R)-β-hydroxyphenethyl]amino]propyl]phenoxyethanol hydrochloride], the “% Reduction in area” value with Female CFLP mice (dose 2.5 µmol/kg orally) turned out to be 54%. For the same compound, the response vs control in vivo at 9.4 mg/kg in the experiment on Male Sprague-Dawley rats (setting [1]) was 159%; with Male Sprague-Dawley rats (setting [2]), 152%.
Turning to `CCOC(=O)COc1ccc(CC[C@@H](C)N(C[C@H](O)c2ccccc2)C[C@H](O)c2ccccc2)cc1.Cl` [Example 4, Ethyl 4-[(R)-3-[bis-[(R)-β-hydroxyphenethyl]amino]butyl]phenoxyacetate hydrochloride], the “% Reduction in area” value in the experiment with Female CFLP mice (dose 12.5 µmol/kg orally) was 42%. In addition, the results for the response vs control in vivo at 26.4 mg/kg in the experiment on Male Sprague-Dawley rats (setting [1]) and with Male Sprague-Dawley rats (setting [2]) were 111% and 99%, respectively.
With `CNC(=O)COc1ccc(C[C@@H](C)N(C[C@H](O)c2ccccc2)C[C@H](O)c2ccccc2)cc1.Cl` [Example 6, N-Methyl 4-[(R)-2-[bis-[(R)-β-hydroxyphenethyl]amino]propyl]phenoxyacetamide hydrochloride], in the experiment with Female CFLP mice (dose 2.5 µmol/kg orally), the “% Reduction in area” value came to 52%. Also, the response vs control in vivo at 10 mg/kg in the experiment with Male Sprague-Dawley rats (setting [1]) came to 154%; in the experiment on Male Sprague-Dawley rats (setting [2]), 147%.
For the compound `CCOC(=O)COc1ccc(C[C@@H](C)N(C[C@H](O)c2ccccc2)C[C@H](O)c2ccccc2)cc1.Cl` [Example 2, Ethyl 4-[(R)-2-[bis-[(R)-β-hydroxyphenethyl]amino]propyl]phenoxyacetate hydrochloride], the “% Reduction in area” value with Female CFLP mice (dose 2.5 µmol/kg orally) amounted to 52%. Further, the response vs control in vivo at 10.3 mg/kg in the experiment on Male Sprague-Dawley rats (setting [1]) was determined as 146%; with Male Sprague-Dawley rats (setting [2]), 143%.

Source of the values: EP0164700B1, “Bis(beta-hydroxy phenethyl)amines” (BEECHAM GROUP PLC, priority 1984, dated 1985).
